± gives the standard deviation of the averaged measurements.
Tests used:
[1] = test system: H1373; settings: treatment time: 5 days
Experimental: (§1)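 CCK-8 viability of KRAS G12C-mutant cancer cell lines transfected with control, YAP/TAZ or TEAD1-4 siRNAs and treated with KRAS G12C inhibitors for 5 days; IC50 fitted in Prism after normalising absorbance at 450 nm to vehicle control.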

[2] = test system: H2030; settings: treatment time: 5 days
Experimental: as §1

[3] = test system: H358; settings: treatment time: 5 days
Experimental: as §1

[4] = test system: KYSE410; settings: treatment time: 5 days
Experimental: as §1

[5] = test system: MIAPACA2; settings: treatment time: 5 days
Experimental: as §1

[6] = test system: SW1573; settings: treatment time: 5 days
Experimental: as §1

[7] = test system: MIAPACA2; experiment: relative viability (fraction of vehicle control); higher = more viable / less inhibited; settings: treatment time: 5 days
Experimental: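 CCK-8 viability of MIAPACA2 cells with empty vector or constitutively active YAP S127A, treated with KRAS G12C inhibitors for 5 days, normalised to vehicle control.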

[8] = test system: H1373; experiment: as above; settings: treatment time: 5 days
Experimental: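 CCK-8 viability of H1373 cells with empty vector or constitutively active YAP S127A, treated with KRAS G12C inhibitors for 5 days, normalised to vehicle control.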

[9] = test system: KYSE410; experiment: as above; settings: log10 concentration (uM): 0, treatment time: 5 days
Experimental: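 CCK-8 viability of KYSE410 cells transfected with control, YAP/TAZ or TEAD1-4 siRNAs and treated with KRAS G12C inhibitors for 5 days. Values are normalised to vehicle control.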

[10] = siRNA knockdown (Con = control): Con
[11] = siRNA knockdown (Con = control): YAP_WWTR1_si1
[12] = siRNA knockdown (Con = control): YAP_WWTR1_si2
[13] = siRNA knockdown (Con = control): TEAD1234_si2
[14] = siRNA knockdown (Con = control): TEAD1234_si1
[15] = log10 concentration (uM): 0, ectopic expression: YAP S127A
[16] = log10 concentration (uM): 0, ectopic expression: empty vector (YAP experiment)
[17] = log10 concentration (uM): 0.69897, ectopic expression: YAP S127A
[18] = log10 concentration (uM): 0.69897, ectopic expression: empty vector (YAP experiment)
[19] = log10 concentration (uM): -0.30103, ectopic expression: YAP S127A
[20] = log10 concentration (uM): -0.30103, ectopic expression: empty vector (YAP experiment)
[21] = log10 concentration (uM): -1, ectopic expression: YAP S127A
[22] = log10 concentration (uM): -1, ectopic expression: empty vector (YAP experiment)
[23] = log10 concentration (uM): -1.30103, ectopic expression: YAP S127A
[24] = log10 concentration (uM): -1.30103, ectopic expression: empty vector (YAP experiment)
[25] = log10 concentration (uM): -2, ectopic expression: YAP S127A
[26] = log10 concentration (uM): -2, ectopic expression: empty vector (YAP experiment)
[27] = log10 concentration (uM): -2.30103, ectopic expression: YAP S127A
[28] = log10 concentration (uM): -2.30103, ectopic expression: empty vector (YAP experiment)
[29] = log10 concentration (uM): -3, ectopic expression: YAP S127A
[30] = log10 concentration (uM): -3, ectopic expression: empty vector (YAP experiment)
[31] = log10 concentration (uM): -4, ectopic expression: YAP S127A
[32] = log10 concentration (uM): -4, ectopic expression: empty vector (YAP experiment)

**Q.** Which “IC50 (cell viability, 5 days)” value [1, 10] does the source give for `C=C(F)C(=O)N1CCN(c2nc(OC[C@@H]3CCCN3C)nc3c2CCN(c2cccc4cccc(Cl)c24)C3)C[C@@H]1CC#N` [MRTX849] here?
**A.** 82.1 nM

**Q.** What about the “IC50 (cell viability, 5 days)” value [1, 11] of the same molecule?
**A.** 19.3 nM

**Q.** What about the “IC50 (cell viability, 5 days)” value [1, 12] of the same molecule?
**A.** 11.4 nM

**Q.** And the “IC50 (cell viability, 5 days)” value [2, 10]?
**A.** 1500 nM

**Q.** And the “IC50 (cell viability, 5 days)” value [2, 13]?
**A.** 28 nM

**Q.** And the “IC50 (cell viability, 5 days)” value [3, 10]?
**A.** 9.45 nM

**Q.** What about the “IC50 (cell viability, 5 days)” value [3, 14] of the same molecule?
**A.** 5.61 nM

**Q.** What about the “IC50 (cell viability, 5 days)” value [3, 13] of the same molecule?
**A.** 3.74 nM

**Q.** What about the “IC50 (cell viability, 5 days)” value [3, 11] of the same molecule?
**A.** 5.52 nM

**Q.** And the “IC50 (cell viability, 5 days)” value [3, 12]?
**A.** 5.33 nM

**Q.** And the “IC50 (cell viability, 5 days)” value [4, 10]?
**A.** 1260 nM

**Q.** What about the “IC50 (cell viability, 5 days)” value [4, 14] of the same molecule?
**A.** 415 nM

**Q.** And the “IC50 (cell viability, 5 days)” value [4, 13]?
**A.** 83.3 nM

**Q.** What about the “IC50 (cell viability, 5 days)” value [4, 11] of the same molecule?
**A.** 80 nM

**Q.** What about the “IC50 (cell viability, 5 days)” value [4, 12] of the same molecule?
**A.** 27.2 nM

**Q.** What about the “IC50 (cell viability, 5 days)” value [5, 10] of the same molecule?
**A.** 115 nM

**Q.** And the “IC50 (cell viability, 5 days)” value [5, 14]?
**A.** 52.6 nM

**Q.** What about the “IC50 (cell viability, 5 days)” value [5, 13] of the same molecule?
**A.** 49.4 nM

**Q.** What about the “IC50 (cell viability, 5 days)” value [5, 11] of the same molecule?
**A.** 34.4 nM

**Q.** And the “IC50 (cell viability, 5 days)” value [5, 12]?
**A.** 60.6 nM

**Q.** And the “IC50 (cell viability, 5 days)” value [6, 10]?
**A.** 926 nM

**Q.** What about the “IC50 (cell viability, 5 days)” value [6, 14] of the same molecule?
**A.** 7.3 nM

**Q.** What about the “IC50 (cell viability, 5 days)” value [6, 13] of the same molecule?
**A.** 4.3 nM

**Q.** And the relative viability [7, 15]?
**A.** 0.696 ± 0.059

**Q.** And the relative viability [7, 16]?
**A.** 0.0786 ± 0.0051

**Q.** And the relative viability [7, 17]?
**A.** 0.15 ± 0.012

**Q.** What about the relative viability [7, 18] of the same molecule?
**A.** 0.0127 ± 0.0017

**Q.** And the relative viability [7, 19]?
**A.** 0.687 ± 0.029

**Q.** And the relative viability [7, 20]?
**A.** 0.0877 ± 0.0072

**Q.** And the relative viability [7, 21]?
**A.** 0.902 ± 0.033

**Q.** What about the relative viability [7, 22] of the same molecule?
**A.** 0.217 ± 0.03

**Q.** And the relative viability [7, 23]?
**A.** 0.924 ± 0.039

**Q.** And the relative viability [7, 24]?
**A.** 0.309 ± 0.055

**Q.** What about the relative viability [7, 25] of the same molecule?
**A.** 0.979 ± 0.082

**Q.** And the relative viability [7, 26]?
**A.** 0.917 ± 0.12

**Q.** And the relative viability [7, 27]?
**A.** 1.01 ± 0.032

**Q.** What about the relative viability [7, 28] of the same molecule?
**A.** 0.986 ± 0.038

**Q.** And the relative viability [7, 29]?
**A.** 1.06 ± 0.044

**Q.** What about the relative viability [7, 30] of the same molecule?
**A.** 0.964 ± 0.057

**Q.** What about the relative viability [7, 31] of the same molecule?
**A.** 0.993 ± 0.054

**Q.** And the relative viability [7, 32]?
**A.** 0.997 ± 0.043

**Q.** And the relative viability [8, 15]?
**A.** 0.547 ± 0.044

**Q.** What about the relative viability [8, 16] of the same molecule?
**A.** 0.301 ± 0.0055

**Q.** And the relative viability [8, 17]?
**A.** 0.0844 ± 0.017

**Q.** What about the relative viability [8, 18] of the same molecule?
**A.** 0.0167 ± 0.003

**Q.** What about the relative viability [8, 19] of the same molecule?
**A.** 0.529 ± 0.036

**Q.** What about the relative viability [8, 20] of the same molecule?
**A.** 0.307 ± 0.02

**Q.** What about the relative viability [8, 21] of the same molecule?
**A.** 0.591 ± 0.028

**Q.** What about the relative viability [8, 22] of the same molecule?
**A.** 0.436 ± 0.012

**Q.** What about the relative viability [8, 23] of the same molecule?
**A.** 0.578 ± 0.053

**Q.** What about the relative viability [8, 24] of the same molecule?
**A.** 0.45 ± 0.035

**Q.** What about the relative viability [8, 25] of the same molecule?
**A.** 0.781 ± 0.18

**Q.** And the relative viability [8, 26]?
**A.** 0.863 ± 0.093

**Q.** And the relative viability [8, 27]?
**A.** 0.818 ± 0.066

**Q.** And the relative viability [8, 28]?
**A.** 0.904 ± 0.063

**Q.** And the relative viability [8, 29]?
**A.** 0.938 ± 0.066

**Q.** What about the relative viability [8, 30] of the same molecule?
**A.** 1.07 ± 0.074

**Q.** What about the relative viability [8, 31] of the same molecule?
**A.** 1.01 ± 0.012

**Q.** And the relative viability [8, 32]?
**A.** 0.995 ± 0.062

**Q.** And the relative viability ([9]; siRNA knockdown: TEAD1-4 siRNA 1)?
**A.** 0.319 ± 0.078

**Q.** What about the relative viability ([9]; siRNA knockdown: TEAD1-4 siRNA 2) of the same molecule?
**A.** 0.212 ± 0.035
